31 compounds from ChEMBL document CHEMBL3600290, “From hybrid compounds to targeted drug delivery in antimalarial therapy” (Bioorg Med Chem, 2015) can be followed below.

In data set [1] the test system is Plasmodium falciparum. Briefly: Antimalarial activity against Plasmodium falciparum NF54 assessed as inhibition of parasite growth. The class given is functional, organism-based.
Data set [2] is described as follows: Inhibition of Plasmodium falciparum FP2.
In another data set the test system is Plasmodium berghei. The data set can be described thus: Antimalarial activity against liver stage of Plasmodium berghei. The format is functional, organism-based.
The test system of data set [3] is Plasmodium falciparum. The data set can be described thus: Antimalarial activity against Plasmodium falciparum W2 assessed as inhibition of parasite growth. The class given is functional, organism-based.
In data set [4] the test system is Plasmodium falciparum. The data set can be described thus: Antimalarial activity against Plasmodium falciparum Dd2 assessed as inhibition of parasite growth. The format is functional, organism-based.
Data set [5] relates to Plasmodium falciparum. Briefly: Antimalarial activity against Plasmodium falciparum 3D7 assessed as inhibition of parasite growth. The class given is functional, organism-based.
Data set [6] relates to Plasmodium falciparum. The data set can be described thus: Antimalarial activity against Plasmodium falciparum F32. The format is functional, organism-based.
Data set [7] concerns Plasmodium falciparum. Briefly: Antimalarial activity against Plasmodium falciparum FcB1. The class given is functional, organism-based.
Data set [8] relates to Plasmodium falciparum. The data set can be described thus: Antimalarial activity against Plasmodium falciparum infected in mouse assessed as cure rate at 26 to 32 mg/kg/day administered po or ip. The format is functional.
For data set [9], the system named is Plasmodium falciparum. Briefly: Antimalarial activity against Plasmodium falciparum D10 assessed as inhibition of parasite growth. The format is functional, organism-based.
The test system of data set [10] is Plasmodium falciparum. Briefly: Antimalarial activity against chloroquine-resistant Plasmodium falciparum K1 assessed as inhibition of parasite growth. The class given is functional, organism-based.
In data set [11] the test system is Plasmodium falciparum. Briefly: Antimalarial activity against Plasmodium falciparum infected in mouse assessed as mouse survival at 3x10 mg/kg/day, po. The class given is functional.
Data set [12] concerns Plasmodium falciparum. Briefly: Antimalarial activity against Plasmodium falciparum infected in mouse assessed as suppression of parasitemia at 3x10 mg/kg/day, po measured at day 4 post-infection. The format is functional.
A short description of data set [13]: Inhibition of Plasmodium falciparum DPAP1 after 30 mins.
Data set [14] has as its system Plasmodium falciparum. Briefly: Antimalarial activity against Plasmodium falciparum D6 assessed as inhibition of parasite growth. The class given is functional, organism-based.
The nature of data set [15]: Inhibition of beta-hematin formation. The format is physicochemical.

In brackets after ≈: the same amount, converted by molar mass. Numbered stars: 1 amine (or outer) side, 2 acyl side, 3 side chain; on linkers, the order of the positions; unused ones are H or OH. Square brackets hold non-standard residues; d marks the D form. Peptide text beside a SMILES is read from it. * marks the point of attachment. hPhe = N[C@@H](CCc1ccccc1)C(=O)O; Morpholide = C1CN(*)CCO1; CO = O=C([*:1])[*:2]

Broadly, the IC50 is the midpoint of a concentration-inhibition curve. Consider `Clc1ccc2c(NCCNC(CCN3CCCCC3)c3ccccc3)ccnc2c1` (stereo not drawn), for which the IC50 in the data set on Plasmodium falciparum [1] is 7.1 nM.
Usually MIC stands for the least concentration at which growth counts as inhibited. `COc1ccc2nc3cc(Cl)ccc3c(Nc3cccc(Nc4ccnc5cc(Cl)ccc45)c3)c2c1`: the MIC in the data set with Plasmodium falciparum [1] was determined as 0.25 µg/mL (≈ 0.489 µM).
Consider `CC(C)C[C@H](NC(=O)c1ccc(CO[C@H]2O[C@@H]3O[C@@]4(C)CC[C@H]5[C@H](C)CC[C@@H]([C@H]2C)[C@@]35OO4)cc1)C(=O)N[C@H](/C=C/S(C)(=O)=O)CCc1ccccc1`, for which the IC50 in [2] came out at 3500 nM.
Turning to `CC(C)C[C@@H](NC(=O)/C=C/c1ccccc1)C(=O)N[C@H](CCc1ccccc1)C(=O)Nc1ccnc2cc(Cl)ccc12`, half-maximal inhibition in data set [2] (IC50) required 19600 nM.
`O=C(NCCNc1ccnc2cc(Cl)ccc12)N/N=C/c1ccc(O)c(CN2CCN(c3ccnc4cc(Cl)ccc34)CC2)c1O` gave an IC50 in data set [2] of 3160 nM.
Regarding `COc1cc(NC(C)CCCNC2CCC3(CC2)OOC2(OO3)C3CC4CC(C3)CC2C4)c2ncccc2c1` (stereo not drawn), the IC50 in the data set on Plasmodium berghei amounted to 330 nM; with Plasmodium falciparum [3], 22 nM.
Take `COc1cc(NC(C)CCCNc2ccnc3cc(Cl)ccc23)c2ncccc2c1` (stereo not drawn): the IC50 with Plasmodium falciparum [4] worked out at 580 nM; in the data set with Plasmodium falciparum [5] it was 640 nM.
For `CC1(C)COC2(CCC(NC3CCC(Nc4ccnc5cc(Cl)ccc45)CC3)CC2)OO1` (stereo not drawn), the IC50 worked out at 13 nM in the data set on Plasmodium falciparum [6], 24 nM in the data set on Plasmodium falciparum [7] and 15 nM with Plasmodium falciparum [3]. Further, the Activity in the data set on Plasmodium falciparum [8] was found to be 100%.
With `CC(C)CN(NC(=O)C1CCC2(CC1)OOC1(OO2)C2CC3CC(C2)CC1C3)c1nc(C#N)ncc1Br` (stereo not drawn), the IC50 in data set [2] was 16.4 nM.
The same measure, in the same setting: in the case of `CC(C)CN(NC(=O)C1CCC(=O)CC1)c1nc(C#N)ncc1Br` it was 58.4 nM.
Take `Cc1ccc2c(c1)/C(=N/NC(N)=S)C(=O)N2CCNc1ccnc2cc(Cl)ccc12`: the IC50 came out at 11600 nM in [2], 79 nM in the data set with Plasmodium falciparum [9] and 51 nM with Plasmodium falciparum [3].
For the compound `COc1cc(NC(C)CCCNC(=O)c2ccc(CO[C@H]3O[C@@H]4O[C@@]5(C)CC[C@H]6[C@H](C)CC[C@@H]([C@H]3C)[C@@]46OO5)cc2)c2ncccc2c1` (stereo partly drawn), the figures for the IC50 in the data set on Plasmodium berghei and with Plasmodium falciparum [3] were 67 nM and 5.1 nM, respectively.
Consider `C[C@H]1[C@H](OCCNCCNc2ccnc3cc(Cl)ccc23)O[C@@H]2O[C@@]3(C)CC[C@H]4[C@H](C)CC[C@@H]1[C@@]24OO3`, for which the IC50 with Plasmodium falciparum [4] was found to be 25.7 nM; in the data set with Plasmodium falciparum [5], 20.5 nM; in the data set on Plasmodium falciparum [9], 21.5 nM.
As for `C[C@@H]1CC[C@H]2C(CN3CCCCC3[C@H](O)c3cc(C(F)(F)F)nc4c(C(F)(F)F)cccc34)=C(C(F)(F)F)O[C@@H]3O[C@@]4(C)CC[C@@H]1[C@]32OO4` (stereo partly drawn), the values for the half-inhibitory concentration (IC50) in the data set on Plasmodium falciparum [10], in the data set with Plasmodium falciparum [6] and in the data set on Plasmodium falciparum [7] were 10.6 nM, 15.7 nM and 17.2 nM, respectively.
As to `COc1ccc2nccc([C@@H](O)[C@@H]3C[C@@H]4CCN3C[C@@H]4CC(=O)O[C@@H]3O[C@@H]4O[C@@]5(C)CC[C@H]6[C@H](C)CC[C@@H]([C@H]3C)[C@@]46OO5)c2c1`, the IC50 in the data set on Plasmodium falciparum [5] worked out at 8.95 nM; in the data set with Plasmodium falciparum [7], 9.59 nM.
`CCN(CC)Cc1cc(C2CCC3(CC2)OOC2(OO3)C3CC4CC(C3)CC2C4)ccc1O` (stereo not drawn): the IC50 in the data set with Plasmodium falciparum [10] was 5.7 nM; in the data set with Plasmodium falciparum [3], 5.1 nM. Moreover, the Survival with Plasmodium falciparum [11] is greater than 20 days. Besides, the “inhibition (INH)” value with Plasmodium falciparum [12] came out at 99.8%.
Turning to `CC(=O)O[C@@]1(C)CC[C@@H]2C[C@@H]1OO[C@]2(/C=C\c1ccc(Cl)cc1)c1ccccc1`, in the data set with Plasmodium falciparum [10], the IC50 came out at 23 nM.
In the case of `CC(C)C[C@H](NC(=O)N1CCOCC1)C(=O)N[C@@H](CCc1ccccc1)[C@@H]1OOC2(O1)C1CC3CC(C1)CC2C3` (stereo partly drawn), the IC50 was found to be 35.3 nM in the data set with Plasmodium falciparum [5] and 510 nM in data set [2].
Take `CC(C)C[C@H](NC(=O)C1CCC2(CC1)OOC1(OO2)C2CC3CC(C2)CC1C3)C(=O)N[C@H](/C=C/S(=O)(=O)c1ccccc1)CCc1ccccc1` (stereo partly drawn): the IC50 with Plasmodium falciparum [5] was determined as 28.4 nM; in data set [2] it was 1800 nM; with Plasmodium falciparum [3], 18.5 nM.
In the same order, the values of `CC(C)C[C@H](NC(=O)C1CCC(=O)CC1)C(=O)N[C@H](/C=C/S(=O)(=O)c1ccccc1)CCc1ccccc1` are 288 nM, 69.1 nM and 26.2 nM.
With `CCCCC(C(=O)COc1c(F)c(F)cc(F)c1F)n1cc([C@@](C)(NC(=O)OCC[C@@]2(CCC(=O)NCCCN3CCCC3=O)OOC3(O2)C2CC4CC(C2)CC3C4)C2CCCC2)nn1` (stereo partly drawn), the figures for the IC50 (in [13]; with Plasmodium falciparum [9]) were 10000 nM and 4 nM, respectively.
For the compound `CCCCC(C(=O)COc1c(F)c(F)cc(F)c1F)n1cc([C@@](C)(N)C2CCCC2)nn1` (stereo partly drawn), the 50% inhibitory concentration (IC50) is 70 nM in [13] and 5.2 nM in the data set on Plasmodium falciparum [9].
As for `CC(C)(C[C@H](NC(=O)N1CCOCC1)C(=O)N[C@H](/C=C/S(=O)(=O)c1ccccc1)CCc1ccccc1)OC(=O)OCC[C@@]1(CCC(=O)NCCCN2CCCC2=O)OOC2(O1)C1CC3CC(C1)CC2C3` (stereo partly drawn), the IC50 came out at 50000 nM in data set [2] and 600 nM with Plasmodium falciparum [3].
In the same order, the values of `CC(C)(O)C[C@H](NC(=O)N1CCOCC1)C(=O)N[C@H](/C=C/S(=O)(=O)c1ccccc1)CCc1ccccc1` are 1020 nM and 180 nM.
For `COc1ccc(C[C@H](NC(=O)OC2CCCC3(C2)OOC2(O3)C3CC4CC(C3)CC2C4)C(=O)N[C@H]2[C@@H](O)[C@H](n3cnc4c(N(C)C)ncnc43)O[C@@H]2CO)cc1` (stereo partly drawn), the IC50 in the data set with Plasmodium falciparum [3] was found to be 10 nM.
In data set [2], `CC(C)C[C@H](NC(=O)N1CCOCC1)C(=O)N[C@H](C=O)CCc1ccccc1` ({Morpholide-CO}-Leu-[hPhe]-aldehyde) yielded an IC50 of 16.3 nM.
`C[C@@H]1C(=O)C[C@H]2C[C@@H]1OO[C@@]2(C)/C=C\c1ccc(C(F)(F)F)cc1C(F)(F)F` [ARTEFLENE]: the 50% inhibitory concentration (IC50) with Plasmodium falciparum [10] was 15 nM.
On the same count and under the same terms, in the case of `C[C@@H]1CC[C@H]2[C@@H](C)C(=O)O[C@@H]3O[C@@]4(C)CC[C@@H]1[C@]32OO4` [ARTEMISININ] it was 47 nM.
`CCN(CC)CCCC(C)Nc1ccnc2cc(Cl)ccc12` (stereo not drawn) [CHLOROQUINE]: the MIC in the data set on Plasmodium falciparum [1] amounted to 0.125 µg/mL (≈ 0.391 µM).
As to `Clc1ccc2c(NCCCN3CCC(NC(c4ccccn4)c4ccccn4)CC3)ccnc2c1` [DM-1157], the IC50 was determined as 1.6 nM in the data set on Plasmodium falciparum [4], 0.9 nM with Plasmodium falciparum [14] and 1600 nM in [15].
As for `COc1ccc(C[C@H](N)C(=O)N[C@H]2[C@@H](O)[C@H](n3cnc4c(N(C)C)ncnc43)O[C@@H]2CO)cc1` [PUROMYCIN], in the data set with Plasmodium falciparum [3], the IC50 came to 42 nM.
